Reference: the supplement of paper PMC11208160

Experiment: recombinant barcode read abundance after kanamycin selection (control-corrected) (log10(CPM+1)); higher = more efficient recombination; sequences stand for … in AGTGCAGAGAAAATCGGCCAGTTTTCTCTGCCTGCAGTCCGCATGCCGT…AGATTTATGCAGCGGACTGCCTTTCTCCCAAAGTGATAAACCGGACAGTATCATGGACCGGTTTTCCCGGTAATCCGTATTTGCAAGGTTGGTTTCACT; site = the 11-nt target
Summary of the method: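 Duplicate cultures were plated either on chloramphenicol/ampicillin LB agar, serving as control, or on chloramphenicol/ampicillin/kanamycin with 0.1 mM IPTG. These came from a pooled E. coli library co-electroporated with a donor plasmid, each member pairing a target with an IS621 bridge RNA target-binding loop. Recombination efficiency equals averaged, control-corrected counts per million of recombinant-junction barcodes. It is listed as log10(CPM+1).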
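Also: IS621 recombinase and bridge RNA in Escherichia coli cells.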

Compared with “CTAGGCCCTTGGGTTCTAACCTGTTGCGT (site CTAGGCCCTAG)”, “CTAGGCCCTTGGGTTCTAACCTGTTGCGT (site CTAGGCCCTAT)” is higher in “recombinant barcode read abundance (log10)” value: 0.264 for the first, 2.28 for the second.

Compared with “CTAGTAGCTTGGGTTCTAACCTGTTGCCG (site CTAGTAGCTCG)”, “CTAGTAGCTTGGGTTCTAACCTGTTGCCG (site CTATTAGCTCG)” is lower in “recombinant barcode read abundance (log10)” value: 1.84 for the first, 0.277 for the second.

First: CTAGTAGCTTGGGTTCTAACCTGTTGCGT (site CTAGTAGCTAC)
Second: CTAGTAGCTTGGGTTCTAACCTGTTGCGT (site CTAGTAGCTCC)
The “recombinant barcode read abundance (log10)” value of the first is higher: 2.25 for the first, 0.378 for the second.

First: CTAGTCTCTTGGGTTCTAACCTGTTGCGT (site CTAGGATCTAC)
Second: CTAGTCTCTTGGGTTCTAACCTGTTGCGT (site CTAGTCTCTAC)
The “recombinant barcode read abundance (log10)” value of the first is lower: 0.0308 for the first, 3.07 for the second.

“CTAGTGACTTGGGTTCTAACCTGTTGCGC (site CTAGTGACTAC)” and “CTAGTGACTTGGGTTCTAACCTGTTGCGC (site CTAGTGACTCC)” are within 0.2 log units of each other in “recombinant barcode read abundance (log10)” value: 0.0258 for the first, 0.0835 for the second.

Compared with “CTAGTGACTTGGGTTCTAACCTGTTGCGC (site CTAGTGACTGC)”, “CTAGTGACTTGGGTTCTAACCTGTTGCGC (site CTAGTGACTTC)” is lower in “recombinant barcode read abundance (log10)” value: 2.12 for the first, 0.127 for the second.

First: CTAGTGACTTGGGTTCTAACCTGTTGCGT (site CTAGTGACTAC)
Second: CTAGTGACTTGGGTTCTAACCTGTTGCGT (site CTAGTGACTCC)
The “recombinant barcode read abundance (log10)” value of the first is higher: 1.17 for the first, 0.313 for the second.

“CTAGTGACTTGGGTTCTAACCTGTTGCGT (site CTAGTGACTGC)” and “CTAGTGACTTGGGTTCTAACCTGTTGCGT (site CTAGTGACTTC)” are within 0.2 log units of each other in “recombinant barcode read abundance (log10)” value: 0.0977 for the first, 0.00958 for the second.

Compared with “CTATACTCTTGGGTTCTAACCTGTTGCCA (site CTATACTCTTG)”, “CTATACTCTTGGGTTCTAACCTGTTGCCA (site CTATTCTCTTA)” is lower in “recombinant barcode read abundance (log10)” value: 1.03 for the first, 0.195 for the second.

“CTATATGCTTGGGTTCTAACCTGTTGCTT (site CTATATGCTAA)” and “CTATATGCTTGGGTTCTAACCTGTTGCTT (site TAGACCACTGT)” are within 0.2 log units of each other in “recombinant barcode read abundance (log10)” value: 0.613 for the first, 0.449 for the second.

First: CTATCGCCTTGGGTTCTAACCTGTTGCCT (site CTATCGCCTAG)
Second: CTATCGCCTTGGGTTCTAACCTGTTGCCT (site CTCTCGCCTAG)
The “recombinant barcode read abundance (log10)” value of the first is higher: 0.496 for the first, 0.238 for the second.

“CTATCGCCTTGGGTTCTAACCTGTTGCCT (site CTGTCGCCTAG)” and “CTATCGCCTTGGGTTCTAACCTGTTGCCT (site CTTTCGCCTAG)” are within 0.2 log units of each other in “recombinant barcode read abundance (log10)” value: 0.0772 for the first, 0.0941 for the second.

Going from “CTATTATCTTGGGTTCTAACCTGTTGCCT (site CTATTATCTAG)” to “CTATTATCTTGGGTTCTAACCTGTTGCCT (site CTGTTATCTAG)”, the “recombinant barcode read abundance (log10)” value falls from 0.935 to 0.0433.

Compared with “CTATTCTCTTGGGTTCTAACCTGTTGCCT (site CTATTCACTAG)”, “CTATTCTCTTGGGTTCTAACCTGTTGCCT (site CTATTCCCTAG)” is lower in “recombinant barcode read abundance (log10)” value: 0.472 for the first, 0.188 for the second.

First: CTATTCTCTTGGGTTCTAACCTGTTGCCT (site CTATTCGCTAG)
Second: CTATTCTCTTGGGTTCTAACCTGTTGCCT (site CTATTCTCTAG)
The “recombinant barcode read abundance (log10)” value of the first is lower: 0.011 for the first, 2.03 for the second.

“CTATTTGCTTGGGTTCTAACCTGTTGCAA (site CTAATTGCTTT)” and “CTATTTGCTTGGGTTCTAACCTGTTGCAA (site CTACTTGCTTT)” are within 0.2 log units of each other in “recombinant barcode read abundance (log10)” value: 0.0524 for the first, 0.103 for the second.

“CTATTTGCTTGGGTTCTAACCTGTTGCAA (site CTAGTTGCTTT)” and “CTATTTGCTTGGGTTCTAACCTGTTGCAA (site CTATTTGCTTT)” are within 0.2 log units of each other in “recombinant barcode read abundance (log10)” value: 0.0402 for the first, 0.0441 for the second.

Compared with “CTCATTCCTTGGGTTCTAACCTGTTGCGT (site CTCATTCCTAA)”, “CTCATTCCTTGGGTTCTAACCTGTTGCGT (site CTCATTCCTAC)” is higher in “recombinant barcode read abundance (log10)” value: 0.00984 for the first, 1.4 for the second.

“CTCATTCCTTGGGTTCTAACCTGTTGCGT (site CTCATTCCTAG)” and “CTCATTCCTTGGGTTCTAACCTGTTGCGT (site CTCATTCCTAT)” are within 0.2 log units of each other in “recombinant barcode read abundance (log10)” value: 0.0869 for the first, 0.212 for the second.

First: CTCCATTCTTGGGTTCTAACCTGTTGCAT (site CTCAATTCTAT)
Second: CTCCATTCTTGGGTTCTAACCTGTTGCAT (site CTCCATTCTAT)
The “recombinant barcode read abundance (log10)” value of the first is lower: 0.217 for the first, 1.74 for the second.

Compared with “CTCCATTCTTGGGTTCTAACCTGTTGCAT (site CTCGATTCTAT)”, “CTCCATTCTTGGGTTCTAACCTGTTGCAT (site CTCTATTCTAT)” is higher in “recombinant barcode read abundance (log10)” value: 0.123 for the first, 0.34 for the second.

Going from “CTCCCTACTTGGGTTCTAACCTGTTGCAG (site CTCCCAACTCG)” to “CTCCCTACTTGGGTTCTAACCTGTTGCAG (site CTCCCTACTCT)”, the “recombinant barcode read abundance (log10)” value rises from 0.072 to 1.68.

First: CTCCGGCCTTGGGTTCTAACCTGTTGCTT (site CTCCGACCTAA)
Second: CTCCGGCCTTGGGTTCTAACCTGTTGCTT (site CTCCGCCCTAA)
The “recombinant barcode read abundance (log10)” value of the first is higher: 0.809 for the first, 0.0895 for the second.

First: CTCCGGCCTTGGGTTCTAACCTGTTGCTT (site CTCCGGCCTAA)
Second: CTCCGGCCTTGGGTTCTAACCTGTTGCTT (site CTCCGTCCTAA)
The “recombinant barcode read abundance (log10)” value of the first is higher: 0.521 for the first, 0.0711 for the second.

“CTCCGTACTTGGGTTCTAACCTGTTGCCG (site CTCCGTACTCG)” and “CTCCGTACTTGGGTTCTAACCTGTTGCCG (site CTTCGTACTTG)” are within 0.2 log units of each other in “recombinant barcode read abundance (log10)” value: 0.13 for the first, 0.0671 for the second.

Going from “CTCCTACCTTGGGTTCTAACCTGTTGCCT (site CGCCTAGCTAG)” to “CTCCTACCTTGGGTTCTAACCTGTTGCCT (site CTCCTACCTAG)”, the “recombinant barcode read abundance (log10)” value rises from 0.11 to 0.957.

First: CTCCTCTCTTGGGTTCTAACCTGTTGCCT (site CTCCTCCCTAG)
Second: CTCCTCTCTTGGGTTCTAACCTGTTGCCT (site CTCCTCTCTAG)
The “recombinant barcode read abundance (log10)” value of the first is lower: 0.862 for the first, 2.05 for the second.

Compared with “CTCCTGCCTTGGGTTCTAACCTGTTGCCT (site CTCCTGCCTAG)”, “CTCCTGCCTTGGGTTCTAACCTGTTGCCT (site TTCCTGACTAG)” is lower in “recombinant barcode read abundance (log10)” value: 0.977 for the first, 0.0902 for the second.

Going from “CTCGACACTTGGGTTCTAACCTGTTGCCT (site CTAGACACTAG)” to “CTCGACACTTGGGTTCTAACCTGTTGCCT (site CTCGACACTAG)”, the “recombinant barcode read abundance (log10)” value rises from 0.697 to 1.82.

“CTCGACACTTGGGTTCTAACCTGTTGCCT (site CTGGACACTAG)” and “CTCGACACTTGGGTTCTAACCTGTTGCCT (site CTTGACACTAG)” are within 0.2 log units of each other in “recombinant barcode read abundance (log10)” value: 0.0603 for the first, 0.215 for the second.

“CTCGCAGCTTGGGTTCTAACCTGTTGCGG (site CTCGCAGCTCC)” and “CTCGCAGCTTGGGTTCTAACCTGTTGCGG (site CTCGCGACTCC)” are within 0.2 log units of each other in “recombinant barcode read abundance (log10)” value: 0.313 for the first, 0.141 for the second.

Compared with “CTCGCGACTTGGGTTCTAACCTGTTGCGG (site CTCGCAGCTCC)”, “CTCGCGACTTGGGTTCTAACCTGTTGCGG (site CTCGCGACTCC)” is lower in “recombinant barcode read abundance (log10)” value: 0.655 for the first, 0.181 for the second.

Going from “CTCGCTCCTTGGGTTCTAACCTGTTGCTG (site AATAAGTCTAT)” to “CTCGCTCCTTGGGTTCTAACCTGTTGCTG (site CTCGCTCCTCA)”, the “recombinant barcode read abundance (log10)” value rises from 0.102 to 0.563.

Compared with “CTCGGAGCTTGGGTTCTAACCTGTTGCCT (site CTCGGAACTAG)”, “CTCGGAGCTTGGGTTCTAACCTGTTGCCT (site CTCGGACCTAG)” is lower in “recombinant barcode read abundance (log10)” value: 0.499 for the first, 0.0847 for the second.

First: CTCGGAGCTTGGGTTCTAACCTGTTGCCT (site CTCGGAGCTAG)
Second: CTCGGAGCTTGGGTTCTAACCTGTTGCCT (site CTCGGATCTAG)
The “recombinant barcode read abundance (log10)” value of the first is higher: 1.04 for the first, 0.311 for the second.

Compared with “CTCGGATCTTGGGTTCTAACCTGTTGCTT (site CTCGGATCTAA)”, “CTCGGATCTTGGGTTCTAACCTGTTGCTT (site CTCGGATCTCA)” is lower in “recombinant barcode read abundance (log10)” value: 1.38 for the first, 0.0569 for the second.

Compared with “CTCGGATCTTGGGTTCTAACCTGTTGCTT (site CTCGGATCTGA)”, “CTCGGATCTTGGGTTCTAACCTGTTGCTT (site CTCGGATCTTA)” is higher in “recombinant barcode read abundance (log10)” value: 0.0569 for the first, 0.371 for the second.

“CTCTAAACTTGGGTTCTAACCTGTTGCCG (site CTCATAACTCG)” and “CTCTAAACTTGGGTTCTAACCTGTTGCCG (site CTCTAAACTCG)” are within 0.2 log units of each other in “recombinant barcode read abundance (log10)” value: 0.132 for the first, 0.311 for the second.

First: CTCTACCCTTGGGTTCTAACCTGTTGCGT (site CTCTAACCTAC)
Second: CTCTACCCTTGGGTTCTAACCTGTTGCGT (site CTCTACCCTAC)
The “recombinant barcode read abundance (log10)” value of the first is lower: 0.272 for the first, 0.589 for the second.

“CTCTACCCTTGGGTTCTAACCTGTTGCGT (site CTCTAGCCTAC)” and “CTCTACCCTTGGGTTCTAACCTGTTGCGT (site CTCTATCCTAC)” are within 0.2 log units of each other in “recombinant barcode read abundance (log10)” value: 0.0363 for the first, 0.0916 for the second.

Going from “CTCTAGACTTGGGTTCTAACCTGTTGCGT (site CTCTAGACTAC)” to “CTCTAGACTTGGGTTCTAACCTGTTGCGT (site CTTTAGACTAT)”, the “recombinant barcode read abundance (log10)” value falls from 2.01 to 0.211.

“CTCTATTCTTGGGTTCTAACCTGTTGCAT (site CTCAATTCTAT)” and “CTCTATTCTTGGGTTCTAACCTGTTGCAT (site CTCCATTCTAT)” are within 0.2 log units of each other in “recombinant barcode read abundance (log10)” value: 0.262 for the first, 0.16 for the second.

“CTCTATTCTTGGGTTCTAACCTGTTGCAT (site CTCGATTCTAT)” and “CTCTATTCTTGGGTTCTAACCTGTTGCAT (site CTCTATTCTAT)” are within 0.2 log units of each other in “recombinant barcode read abundance (log10)” value: 0.161 for the first, 0.242 for the second.
